These results are taken from patent US8314250B2, “Sultam derivatives” (Hoffmann-La Roche Inc., priority 2009, dated 2012).

This test relates to HeLa cells. In words: CellTiter-Glo luminescent cell viability (cytotoxicity) assay. The note with it: 10 μM test compound, inhibition of luminescence compared to control cells; for inhibition at 10 µM: Homo sapiens, HeLa, 48 h, read-out: Activity (PCT_INHIB @ 10 μM); for Activity (PCT_INHIB @ 10 μM): 48 hours. Type of test: cell-based. Here is the method:
Cytotoxicity was assessed using Promega's CellTiter-Glo® luminescent cell viability assay (Promega Corporation, Madison, Wis., USA) as described in Promega Technical Bulletin TB288, revised August 2008. The assay was performed in HeLa cells at a maximum concentration tested of 10 μM of test compound. This assay measures the amount of adenosine triphosphate (ATP) present as a way of quantifying the presence and degree of metabolic activity in cell cultures.
Viable Hela cells were plated at a density of 3000 cells/well in 96 wells in black, clear bottom plates. Cells were allowed to attach to the plate by incubating overnight at 37° C. Test compounds were diluted in DMSO then further diluted in 10% FBS media. Media was removed from the cell plates and 50 μL of the solution was added to each well manually with the exception of the control well, which contained the same volume of 10% FBS media which includes 1% DMSO. Cells were incubated in the presence of compound undisturbed for 48 hours at 37° C. After the 48 hour compound exposure, 50 μL of the pCellTiter Glo® reagent was added. The cell plates were agitated on a shaker for 2 minutes to help lyse the cells. The plate was covered and read for luminescence.
Percent inhibition was calculated as follows: PCT_INHIB=100*[(U−T)/U] Where U represents the Luminescence of wells containing untreated cells and
T represents the Luminescence of wells containing compound-treated cells
On the technique in general: Cellular ATP, detected with luciferase, serves as a proxy for viable cell number.

Structures are written as SMILES. Structures can show the parent of a compound that is named as a salt.

`COc1ccc(Cl)c(CN(Cc2cccc(CN3C(C(=O)NC4C5CC6CC(C5)CC4C6)CCS3(=O)=O)c2)[C@H](CN(C)C)CC(C)(C)C)c1F` (stereo partly drawn) [Example 30, 2-(3-{[(6-Chloro-2-fluoro-3-methoxy-benzyl)-((S)-1-dimethylaminomethyl-3,3-dimethyl-butyl)-amino]-methyl}-benzyl)-1,1-dioxo-1λ^6-isothiazolidine-3-carboxylic acid adamantan-2-ylamide]: the inhibition at 10 µM turned out to be 96%.
As to `COc1ccc(Cl)c(CN(Cc2cccc(CN3C(C(=O)NC45CC6CC(CC(C6)C4)C5)CCS3(=O)=O)c2)[C@H](CN(C)C)CC(C)(C)C)c1F` (single isomer, unassigned; epimer 2) [Example 34], the “Activity (PCT_INHIB @ 10 μM)” value was determined as 97%.
Same read-out and setting: as for `COc1ccc(Cl)c(CN(Cc2cccc(CN3C(C(=O)NC45CC6CC(CC(C6)C4)C5)CCS3(=O)=O)c2)[C@H](CN(C)C)CC(C)(C)C)c1F` (single isomer, unassigned; epimer 1) [Example 33], the figure is 96%.
Regarding `COc1ccc(Cl)c(CN(Cc2cc(CN3C(C(=O)N[C@H]4C[C@H]5C[C@@H]([C@@H]4C)C5(C)C)CCS3(=O)=O)cc(N(C)C)c2)[C@H](CN(C)C)CC(C)(C)C)c1F` (stereo partly drawn) [Example 35, 2-(3-{[(6-Chloro-2-fluoro-3-methoxy-benzyl)-((S)-1-dimethylaminomethyl-3,3-dimethyl-butyl)-amino]-methyl}-5-dimethylamino-benzyl)-1,1-dioxo-1λ^6-isothiazolidine-3-carboxylic acid((1S,2S,3S,5R)-2,6,6-trimethyl-bicyclo[3.1.1]hept-3-yl)-amide, hydrochloride salt], the inhibition at 10 µM came out at 86%.
On the same count and under the same terms, as for `COc1ccc(Cl)c(CN(Cc2cccc(CN3C(C(=O)N[C@H]4C[C@H]5C[C@@H]([C@@H]4C)C5(C)C)CCS3(=O)=O)c2)[C@@H](Cc2cccc(Cl)c2)CN(C)C)c1F` (stereo partly drawn) [Example 22, 2-[3-({(6-Chloro-2-fluoro-3-methoxy-benzyl)-[(S)-2-(3-chloro-phenyl)-1-dimethylaminomethyl-ethyl]-amino}-methyl)-benzyl]-1,1-dioxo-1λ^6-isothiazolidine-3-carboxylic acid((1S,2S,3S,5R)-2,6,6-trimethyl-bicyclo[3.1.1]hept-3-yl)-amide], the figure is 93%; as for `COc1ccc(Cl)c(CN(Cc2cccc(CN3C(C(=O)NCc4ccc(Cl)cc4)CCS3(=O)=O)c2)[C@H](CN(C)C)CC(C)(C)C)c1F` (stereo partly drawn) [Example 27, 2-(3-{[(6-Chloro-2-fluoro-3-methoxy-benzyl)-((S)-1-dimethylaminomethyl-3,3-dimethyl-butyl)-amino]-methyl}-benzyl)-1,1-dioxo-1λ^6-isothiazolidine-3-carboxylic acid 4-chloro-benzylamide], 95%; as for `Cc1ccc(O)c(CN(Cc2cccc(CN3C(C(=O)N[C@H]4C[C@H]5C[C@@H]([C@@H]4C)C5(C)C)CCS3(=O)=O)c2)[C@H](CN(C)C)CC(C)(C)C)c1` (stereo partly drawn) [Example 10, 2-(3-{[((S)-1-Dimethylaminomethyl-3,3-dimethyl-butyl)-(2-hydroxy-5-methyl-benzyl)-amino]-methyl}-benzyl)-1,1-dioxo-1λ^6-isothiazolidine-3-carboxylic acid((1S,2S,3S,5R)-2,6,6-trimethyl-bicyclo[3.1.1]hept-3-yl)-amide trifluoroacetate salt], 96%.
The same measure, in the same setting: as for `C[C@@H]1[C@@H](NC(=O)C2CCS(=O)(=O)N2Cc2cccc(CN(Cc3ccccc3Oc3ccc(C#N)cc3)[C@H](CN(C)C)CC(C)(C)C)c2)C[C@H]2C[C@@H]1C2(C)C` (stereo partly drawn) [Example 16, 2-(3-{[[2-(4-Cyano-phenoxy)-benzyl]-((S)-1-dimethylaminomethyl-3,3-dimethyl-butyl)-amino]-methyl}-benzyl)-1,1-dioxo-1λ^6-isothiazolidine-3-carboxylic acid((1S,2S,3S,5R)-2,6,6-trimethyl-bicyclo[3.1.1]hept-3-yl)-amide trifluoroacetate salt], the figure is 97%.
As for `COc1ccc(C(C)C)cc1CN(Cc1cccc(CN2C(C(=O)N[C@H]3C[C@H]4C[C@@H]([C@@H]3C)C4(C)C)CCS2(=O)=O)c1)[C@H](CN(C)C)CC(C)(C)C` (stereo partly drawn) [Example 4, 2-(3-{[((S)-1-Dimethylaminomethyl-3,3-dimethyl-butyl)-(5-isopropyl-2-methoxy-benzyl)-amino]-methyl}-benzyl)-1,1-1λ^6-isothiazolidine-3-carboxylic acid((1S,2S,3S,5R)-2,6,6-trimethyl-bicyclo[3.1.1]hept-3-yl)-amide trifluoroacetate salt], the inhibition at 10 µM was determined as 96%.
In the case of `C[C@@H]1[C@@H](NC(=O)C2CCS(=O)(=O)N2Cc2cccc(CN(Cc3c(F)cccc3Oc3ccccc3)[C@H](CN(C)C)CC(C)(C)C)c2)C[C@H]2C[C@@H]1C2(C)C` (stereo partly drawn) [Example 12, 2-(3-{[((S)-1-Dimethylaminomethyl-3,3-dimethyl-butyl)-(2-fluoro-6-phenoxy-benzyl)-amino]-methyl}-benzyl)-1,1-dioxo-1λ^6-isothiazolidine-3-carboxylic acid((1S,2S,3S,5R)-2,6,6-trimethyl-bicyclo[3.1.1]hept-3-yl)-amide trifluoroacetate salt], the inhibition at 10 µM was determined as 96%.
Still for that read-out and setting: as for `COc1ccc(Cl)c(CN(Cc2cccc(CN3C(C(=O)N[C@H]4CC5CCC4(C)C5(C)C)CCS3(=O)=O)c2)[C@H](CN(C)C)CC(C)(C)C)c1F` (stereo partly drawn) [Example 28, 2-(3-{[(6-Chloro-2-fluoro-3-methoxy-benzyl)-((S)-1-dimethylaminomethyl-3,3-dimethyl-butyl)-amino]-methyl}-benzyl)-1,1-dioxo-1λ^6-isothiazolidine-3-carboxylic acid((S)-1,7,7-trimethyl-bicyclo[2.2.1]hept-2-yl)-amide], the figure is 96%; as for `C[C@@H]1[C@@H](NC(=O)C2CCS(=O)(=O)N2Cc2cccc(CN(Cc3ccccc3Oc3ccc(F)cc3)[C@H](CN(C)C)CC(C)(C)C)c2)C[C@H]2C[C@@H]1C2(C)C` (stereo partly drawn) [Example 6, 2-[3-({((S)-1-Dimethylaminomethyl-3,3-dimethyl-butyl)-[2-(4-fluoro-phenoxy)-benzyl]-amino}-methyl)-benzyl]-1,1-dioxo-1λ^6-isothiazolidine-3-carboxylic acid((1S,2S,3S,5R)-2,6,6-trimethyl-bicyclo[3.1.1]hept-3-yl)-amide trifluoroacetate salt], 82%; as for `C[C@@H]1[C@@H](NC(=O)C2CCS(=O)(=O)N2Cc2cccc(CN(Cc3cccc4c3OCO4)[C@H](CN(C)C)CC(C)(C)C)c2)C[C@H]2C[C@@H]1C2(C)C` (stereo partly drawn) [Example 17, 2-(3-{[Benzo[1,3]dioxol-4-ylmethyl-((S)-1-dimethylaminomethyl-3,3-dimethyl-butyl)-amino]-methyl}-benzyl)-1,1-dioxo-1λ^6-isothiazolidine-3-carboxylic acid((1S,2S,3S,5R)-2,6,6-trimethyl-bicyclo[3.1.1]hept-3-yl)-amide trifluoroacetate salt], 96%.
Same read-out and setting: as for `CCOc1ccccc1CN(Cc1cccc(CN2C(C(=O)N[C@H]3C[C@H]4C[C@@H]([C@@H]3C)C4(C)C)CCS2(=O)=O)c1)[C@H](CN(C)C)CC(C)(C)C` (stereo partly drawn) [Example 3, 2-(3-{[((S)-1-Dimethylaminomethyl-3,3-dimethyl-butyl)-(2-ethoxy-benzyl)-amino]methyl}-benzyl)-1,1-dioxo-1λ^6-isothiazolidine-3-carboxylic acid((1S,2S,3S,5R)-2,6,6-trimethyl-bicyclo[3.1.1]hept-3-yl)-amide trifluoroacetate salt], the figure is 69%; as for `COc1ccc(F)c(F)c1CN(Cc1cccc(CN2C(C(=O)N[C@H]3C[C@H]4C[C@@H]([C@@H]3C)C4(C)C)CCS2(=O)=O)c1)[C@@H](Cc1ccccc1)CN(C)C` (stereo partly drawn) [Example 29, 2-(3-{[(2,3-Difluoro-6-methoxy-benzyl)-((S)-1-dimethylaminomethyl-2-phenyl-ethyl)-amino]-methyl}-benzyl)-1,1-dioxo-1λ^6-isothiazolidine-3-carboxylic acid((1S,2S,3S,5R)-2,6,6-trimethyl-bicyclo[3.1.1]hept-3-yl)-amide], 95%; as for `Cc1ccc(Cl)c(CN(Cc2cccc(CN3C(C(=O)N[C@H]4C[C@H]5C[C@@H]([C@@H]4C)C5(C)C)CCS3(=O)=O)c2)[C@H](CN(C)C)CC(C)(C)C)c1F` (stereo partly drawn) [Example 15, 2-(3-{[(6-Chloro-2-fluoro-3-methyl-benzyl)-((S)-1-dimethylaminomethyl-3,3-dimethylbutyl)-amino]-methyl}-benzyl)-1,1-dioxo-1λ^6-isothiazolidine-3-carboxylic acid((1S,2S,3S,5R)-2,6,6-trimethyl-bicyclo[3.1.1]hept-3-yl)-amide trifluoroacetate salt], 91%.
